Laboratory results taken from US6942876B2, “Analgesic compositions comprising anti-epileptic compounds and methods of using same” (Warner-Lambert Company, priority 1997, dated 2005).

Tested on: Carrageenan-induced thermal hyperalgesia
Experiment: carrageenan rat footpad thermal hyperalgesia test (Hargreaves test)
Type: in vivo
Method: In this example, gabapentin, naproxen sodium, and the combination of gabapentin and naproxen sodium were evaluated in a standard rat carrageenan footpad thermal hyperalgesia assay. This assay utilizes an extract of seaweed (carrageenan) that, when injected into the footpad of test animals, causes a sterile inflammation, thereby lowering the pain threshold.
Male Sprague-Dawley rats (200-250 g, Sasco Laboratories) were used. Rats were group housed 5/cage on a 12-hour light:dark cycle with free access to food and water. Rats received only one dose of a drug or drug combination. All drugs were administered orally by gavage.
Dose-effect curves were first determined for (1) gabapentin by itself and (2) a prototypic NSAID (e.g., naproxen) by itself The ED50 value and 95% confidence limits of each agent was determined, as was the time to peak effect. […]
Carrageenan-induced thermal hyperalgesia: Rats were acclimated to a testing chamber whose glass floor was maintained at 25° C. Thirty minutes later, a high intensity beam of light was focused through the glass on the ventral surface of each hindpaw, and the latency to reflex withdrawal of the paw from the light beam was measured to the nearest 0.1 second. […]
Data were expressed as the mean ±SEM. […]

COc1ccc2cc([C@H](C)C(=O)O)ccc2c1 [Naproxen sodium, naproxen sodium]
anti-hyperalgesic action (PO, gabapentin 3-100 mg/kg, naproxen sodium 0.3-30 mg/kg, fixed-ratio combinations at various dosages): anti-hyperalgesic actions | ED50 (Rattus norvegicus, 2 h, single drug, oral gavage, male Sprague-Dawley rats, paw flick latency 120 min after dosing, 95% confidence limits in parentheses): 0.36 mg/kg
